The nature of this data set: recombinant UMI read abundance after kanamycin selection (control-corrected) (log10(CPM+1)); higher = more efficient recombination; extreme values may be limits of the assay; sequences stand for … in AGTGCAGAGAAAATCGGCCAGTTTTCTCTGCCTGCAGTCCGCATGCCGTGGGACCCCTTGGGTTCTAACCTGTTGCCTAGATTTATGCAGCGGACTGCCTTTCTCCCAAAGTGATAAACCGG…AGGTTGGTTTCACT; site = the 11-nt donor. An outline of the steps: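 For the IS621 bridge recombinase, a pooled Escherichia coli screen tested donor and donor-binding-loop pairs. Cells received the pair library together with a target plasmid encoding a fixed target and T7-inducible recombinase, then went onto IPTG (0.07 mM) plus kanamycin or unselected plates in duplicate. After PCR across the donor–target junction and sequencing, recombinant UMI counts were normalized to CPM, averaged, and scaled by control-derived factors. Each value is given as log10(CPM+1).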
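Note: IS621 bridge recombinase in Escherichia coli cells against a fixed T5 target plasmid.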

As to “GACAAAACATGGACCGGTTTTCCCGGTAATCCGTATTTGCG (site GACAAAACTCG)”, the “recombinant UMI read abundance (log10)” value is 1.5.
Then “GACAAAACATGGACCGGTTTTCCCGGTAATCCGTATTTGGC (site GACAAAACTGC)”, with 0; and “GACAAACCATGGACCGGTTTTCCCGGTAATCCGTATTTGGG (site GACAAACCTAC)”, with 0.0248; and “GACAAACCATGGACCGGTTTTCCCGGTAATCCGTATTTGGG (site GACAAACCTCC)”, with 0.
For “GACAAACCATGGACCGGTTTTCCCGGTAATCCGTATTTGGG (site GACAAACCTGC)”, the “recombinant UMI read abundance (log10)” value turned out to be 0.
Then “GACAAACCATGGACCGGTTTTCCCGGTAATCCGTATTTGGG (site GACAAACCTTC)”, with 0.
Consider “GACAATCCATGGACCGGTTTTCCCGGTAATCCGTATTTGAA (site GACAATCCTTT)”, for which the “recombinant UMI read abundance (log10)” value turned out to be 0.601.
In the case of “GACAATCCATGGACCGGTTTTCCCGGTAATCCGTATTTGAA (site GCCAATCCTTT)” it was 0.
Then “GACAATCCATGGACCGGTTTTCCCGGTAATCCGTATTTGAA (site GGCAATCCTTT)”, with 0.0165; and “GACAATCCATGGACCGGTTTTCCCGGTAATCCGTATTTGAA (site GTCAATCCTTT)”, with 0.0122.
Then “GACACAGCATGGACCGGTTTTCCCGGTAATCCGTATTTGAC (site GACACAGCTGT)”, with 2.44; and “GACACGTCATGGACCGGTTTTCCCGGTAATCCGTATTTGCC (site GACACGTCTGG)”, with 2.45.
Consider “GACAGCTCATGGACCGGTTTTCCCGGTAATCCGTATTTGGT (site GACAGCTCTAC)”, for which the “recombinant UMI read abundance (log10)” value came to 1.68.
Then “GACAGCTCATGGACCGGTTTTCCCGGTAATCCGTATTTGTC (site GACAGCTCTGA)”, with 1.15.
Then “GACCAGCCATGGACCGGTTTTCCCGGTAATCCGTATTTGTT (site GACCAGCCTAA)”, with 0; and “GACCGCTCATGGACCGGTTTTCCCGGTAATCCGTATTTGGC (site GACCGCTCTGC)”, with 2.43; and “GACCGGGCATGGACCGGTTTTCCCGGTAATCCGTATTTGAA (site GACCGGGCTTT)”, with 0.143.
Then “GACCGGGCATGGACCGGTTTTCCCGGTAATCCGTATTTGCG (site GACCGGGCTCG)”, with 0.
On to “GACCGTTCATGGACCGGTTTTCCCGGTAATCCGTATTTGCT (site GACCGTTCTAG)”, for which the “recombinant UMI read abundance (log10)” value worked out at 1.7.
In the case of “GACCTCTCATGGACCGGTTTTCCCGGTAATCCGTATTTGTA (site GACCTCTCTTA)” it was 2.09; in that of “GACCTTTCATGGACCGGTTTTCCCGGTAATCCGTATTTGTT (site GACCTTTCTAA)”, 0; in that of “GACGACGCATGGACCGGTTTTCCCGGTAATCCGTATTTGTC (site GACGACGCTGA)”, 2.6.
Then “GACGATTCATGGACCGGTTTTCCCGGTAATCCGTATTTGAT (site GACGATTCTAT)”, with 2.03.
On to “GACGATTCATGGACCGGTTTTCCCGGTAATCCGTATTTGTT (site GAAGATTCTAA)”, for which the “recombinant UMI read abundance (log10)” value is 0.149.
Then “GACGATTCATGGACCGGTTTTCCCGGTAATCCGTATTTGTT (site GACGATTCTAA)”, with 2.04; and “GACGATTCATGGACCGGTTTTCCCGGTAATCCGTATTTGTT (site GAGGATTCTAA)”, with 0; and “GACGATTCATGGACCGGTTTTCCCGGTAATCCGTATTTGTT (site GATGATTCTAA)”, with 0.263.
In the case of “GACGGCCCATGGACCGGTTTTCCCGGTAATCCGTATTTGTT (site AACGGCCCTAA)” it was 0.00882; in that of “GACGGCCCATGGACCGGTTTTCCCGGTAATCCGTATTTGTT (site CACGGCCCTAA)”, 0.0467.
In the case of “GACGGCCCATGGACCGGTTTTCCCGGTAATCCGTATTTGTT (site GACGGCCCTAA)” it was 0; in that of “GACGGCCCATGGACCGGTTTTCCCGGTAATCCGTATTTGTT (site TACGGCCCTAA)”, 0.00762.
“GACTAACCATGGACCGGTTTTCCCGGTAATCCGTATTTGGT (site GACAAACCTAC)”: the “recombinant UMI read abundance (log10)” value turned out to be 0.0462.
In the case of “GACTAACCATGGACCGGTTTTCCCGGTAATCCGTATTTGGT (site GACCAACCTAC)” it was 0.00701; in that of “GACTAACCATGGACCGGTTTTCCCGGTAATCCGTATTTGGT (site GACGAACCTAC)”, 0; in that of “GACTAACCATGGACCGGTTTTCCCGGTAATCCGTATTTGGT (site GACTAACCTAC)”, 0.
In the case of “GACTATTCATGGACCGGTTTTCCCGGTAATCCGTATTTGTA (site GACTATTCTTA)” it was 1.34.
In the case of “GACTCCTCATGGACCGGTTTTCCCGGTAATCCGTATTTGAA (site GACTCCTCTTT)” it was 1.75; in that of “GACTGATCATGGACCGGTTTTCCCGGTAATCCGTATTTGGC (site GACTGATCTGC)”, 2.46; in that of “GACTGGACATGGACCGGTTTTCCCGGTAATCCGTATTTGAC (site GAATGGACTGT)”, 0.
In the case of “GACTGGACATGGACCGGTTTTCCCGGTAATCCGTATTTGAC (site GACTGGACTGT)”, the “recombinant UMI read abundance (log10)” value turned out to be 1.89.
Then “GACTGGACATGGACCGGTTTTCCCGGTAATCCGTATTTGAC (site GAGTGGACTGT)”, with 0.438; and “GACTGGACATGGACCGGTTTTCCCGGTAATCCGTATTTGAC (site GATTGGACTGT)”, with 0; and “GACTGGCCATGGACCGGTTTTCCCGGTAATCCGTATTTGCA (site GAATGGCCTTG)”, with 0.
Then “GACTGGCCATGGACCGGTTTTCCCGGTAATCCGTATTTGCA (site GACTGGCCTTG)”, with 0; and “GACTGGCCATGGACCGGTTTTCCCGGTAATCCGTATTTGCA (site GAGTGGCCTTG)”, with 0.
In the case of “GACTGGCCATGGACCGGTTTTCCCGGTAATCCGTATTTGCA (site GATTGGCCTTG)” it was 0.0169; in that of “GAGAAAACATGGACCGGTTTTCCCGGTAATCCGTATTTGCT (site GAGAAAACTAG)”, 1.16; in that of “GAGAAAACATGGACCGGTTTTCCCGGTAATCCGTATTTGCT (site GCGAAAACTAG)”, 0.0152.
On to “GAGAAAACATGGACCGGTTTTCCCGGTAATCCGTATTTGCT (site GGGAAAACTAG)”, for which the “recombinant UMI read abundance (log10)” value worked out at 0.
Then “GAGAAAACATGGACCGGTTTTCCCGGTAATCCGTATTTGCT (site GTGAAAACTAG)”, with 0; and “GAGAAATCATGGACCGGTTTTCCCGGTAATCCGTATTTGCG (site GAGAAATCTCG)”, with 0.
In the case of “GAGAACCCATGGACCGGTTTTCCCGGTAATCCGTATTTGGA (site GAGAACCCTTC)” it was 0; in that of “GAGAAGACATGGACCGGTTTTCCCGGTAATCCGTATTTGAA (site GAGAAGACTTT)”, 1.82; in that of “GAGAAGCCATGGACCGGTTTTCCCGGTAATCCGTATTTGTC (site GAGAAGCCTGA)”, 0.
Turning to “GAGAATACATGGACCGGTTTTCCCGGTAATCCGTATTTGCA (site AAGAATACTTG)”, the “recombinant UMI read abundance (log10)” value was determined as 0.
Then “GAGAATACATGGACCGGTTTTCCCGGTAATCCGTATTTGCA (site CAGAATACTTG)”, with 0.0136.
Take “GAGAATACATGGACCGGTTTTCCCGGTAATCCGTATTTGCA (site GAGAATACTTG)”: the “recombinant UMI read abundance (log10)” value is 2.23.
Then “GAGAATACATGGACCGGTTTTCCCGGTAATCCGTATTTGCA (site TAGAATACTTG)”, with 0.944.
In the case of “GAGACGCCATGGACCGGTTTTCCCGGTAATCCGTATTTGCC (site GAGACGCCTGG)” it was 0.
Then “GAGACGGCATGGACCGGTTTTCCCGGTAATCCGTATTTGAG (site GAGACGGCTCT)”, with 0.892.
“GAGACTCCATGGACCGGTTTTCCCGGTAATCCGTATTTGTA (site GAGACTCCTTA)”: the “recombinant UMI read abundance (log10)” value was 0.807.
With “GAGCACACATGGACCGGTTTTCCCGGTAATCCGTATTTGGA (site GAGCACACTTC)”, the “recombinant UMI read abundance (log10)” value is 0.594.
In the case of “GAGCCTTCATGGACCGGTTTTCCCGGTAATCCGTATTTGGT (site AAGCCTTCTAC)” it was 0.678.
Then “GAGCCTTCATGGACCGGTTTTCCCGGTAATCCGTATTTGGT (site CAGCCTTCTAC)”, with 0.79; and “GAGCCTTCATGGACCGGTTTTCCCGGTAATCCGTATTTGGT (site GAGCCTTCTAC)”, with 0.859.
In the case of “GAGCCTTCATGGACCGGTTTTCCCGGTAATCCGTATTTGGT (site TAGCCTTCTAC)” it was 0.0029; in that of “GAGCGAGCATGGACCGGTTTTCCCGGTAATCCGTATTTGTA (site GAGCGAGCTTA)”, 2.57.
For “GAGCTCACATGGACCGGTTTTCCCGGTAATCCGTATTTGAC (site GAGCTCACTAT)”, the “recombinant UMI read abundance (log10)” value amounted to 1.

Values taken from the supplement of paper PMC11208160.
